How the values were obtained:
Dopamine D2 receptor = target: T1, Dopamine D2 receptor (Rattus norvegicus, UniProt P61169); test: Dopamine D2 receptor binding assay ([3H]-raclopride); conditions: Dopamine D2 receptor binding test, rat corpus striatum membrane, Ki calculated from IC50 by Cheng-Prussoff formula
T1 construct: from tissue; host or cells: Wistar rat brain, corpus striatum membranes
Description: 1) Dopamine D2 Receptor Binding Assay
The assay was performed according to the method by Kohler et al. (Kohler C, Hall H, Ogren S O and Gawell L, Specific in vitro and in vivo binding of 3H-raclopride. A potent substituted benzamide drug with high affinity for dopamine D-2 receptors in the rat brain. Biochem. Pharmacol., 1985; 34: 2251-2259).
Wistar male rats were decapitated, the brain was retrieved immediately and corpus striatum was taken out. It was homogenized in 50 mM tris(hydroxymethyl)aminomethane (Tris)-hydrochloric acid buffer (pH 7.4) of a volume 50 times of the weight of the tissue using a homogenizer with a high-speed rotating blade, and centrifuged at 4° C., 48,000×g for 10 minutes. The obtained precipitate was suspended again in the above-described buffer of a volume 50 times of the weight of the tissue and after incubated at 37° C. for 10 minutes, centrifuged in the above-described condition. The obtained precipitate was suspended in 50 mM (Tris)-hydrochloric acid buffer (containing 120 mM NaCl, 5 mM KCl, 2 mM CaCl2, 1 mM MgCl2, pH 7.4) of a volume 25 times of the weight of the tissue and preserved by freezing at −85° C. till it was used for binding assay as a membrane specimen.
The binding assay was performed using 40 μl of the membrane specimen, 20 μl of [^3H]-raclopride (final concentration 1 to 2 nM), 20 μl of a test drug and 50 mM Tris-hydrochloric acid buffer (containing 120 mM NaCl, 5 mM KCl, 2 mM CaCl2, 1 mM MgCl2, pH 7.4) so that the total amount was 200 μl (final dimethylsulfoxide concentration 1%). The reaction was performed at room temperature for 1 hour and terminated by conducting suction filtration with a cell harvester on a glass fiber filter plate. The filter plate made of glass fiber was washed with 50 mM Tris-hydrochloric acid buffer (pH 7.4), and after dried, a microplate liquid scintillation cocktail was added and the radioactivity was measured with a microplate scintillation counter. Radioactivity in the presence of 10 μM (+)-butaclamol hydrochloride was assumed as nonspecific binding.
(§1) IC50 value was calculated from concentration-dependent reaction using a non-linear analysis program. Ki value was calculated from IC50 value using Cheng-Prussoff formula.

[1] = target: T2, Serotonin 5-HT2A receptor (Rattus norvegicus, UniProt P14842); test: Serotonin 5-HT2A receptor binding assay ([3H]-Ketanserin); conditions: Serotonin 5-HT2A receptor binding test, rat frontal cortex membrane, Ki calculated from IC50 by Cheng-Prussoff formula
T2 construct: from tissue; host or cells: Wistar rat brain, frontal cortex membranes
T2 sequence (P14842 whole entry): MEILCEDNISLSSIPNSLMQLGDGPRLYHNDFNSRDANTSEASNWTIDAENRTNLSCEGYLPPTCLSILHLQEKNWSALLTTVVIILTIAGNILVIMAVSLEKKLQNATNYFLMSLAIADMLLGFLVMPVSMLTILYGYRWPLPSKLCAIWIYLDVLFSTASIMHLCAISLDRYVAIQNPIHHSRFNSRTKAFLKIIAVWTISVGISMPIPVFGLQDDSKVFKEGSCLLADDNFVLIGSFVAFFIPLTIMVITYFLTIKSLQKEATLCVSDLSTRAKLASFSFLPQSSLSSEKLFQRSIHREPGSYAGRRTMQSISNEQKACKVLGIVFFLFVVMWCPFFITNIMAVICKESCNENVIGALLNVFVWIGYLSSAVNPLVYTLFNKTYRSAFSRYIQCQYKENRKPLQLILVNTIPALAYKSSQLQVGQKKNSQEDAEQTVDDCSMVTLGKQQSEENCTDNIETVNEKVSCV
Description: 2) Serotonin 5-HT2A Receptor Binding Assay
The assay was performed according to the method by Leysen J E et al. (Leysen J E, Niemegeers C J E, Van Nueten J M and Laduron P M. [3H] Ketanserin (R 41 468), a selective 3H-ligand for serotonin 2 receptor binding sites. Mol. Pharmacol., 1982, 21: 301-314).
Wistar male rats were decapitated, the brain was retrieved immediately and frontal cortex was taken out. It was homogenized in 0.25 M sucrose of a volume 10 times of the weight of the tissue using a Teflon glass homogenizer, and centrifuged at 4° C., 1,000×g for 10 minutes. The obtained supernatant was transferred to another centrifuge tube and suspended in 0.25 M sucrose of a volume 5 times of the weight of the tissue and the precipitate was centrifuged in the above-described condition. The obtained supernatant was combined with the supernatant obtained above and adjusted to a volume 40 times of the weight of the tissue with 50 mM Tris-hydrochloric acid buffer (pH 7.4), and centrifuged at 4° C., 35,000×g for 10 minutes. The obtained precipitate was suspended again in the above-described buffer of a volume 40 times of the weight of the tissue and centrifuged in the above-described condition. The obtained precipitate was suspended in the above-described buffer of a volume 20 times of the weight of the tissue and preserved by freezing at −85° C. till it was used for binding assay as a membrane specimen.
The binding assay was performed using 40 μl of the membrane specimen, 20 μl of [^3H]-Ketanserin (final concentration 1 to 3 nM), 20 μl of a test drug and 50 mM Tris-hydrochloric acid buffer (pH 7.4) so that the total amount was 200 μl (final dimethylsulfoxide concentration 1%). The reaction was performed at 37° C. for 20 minutes and terminated by conducting suction filtration with a cell harvester on a glass fiber filter plate.
The filter plate made of glass fiber was washed with 50 mM Tris-hydrochloric acid buffer (pH 7.4), and after dried, a microplate liquid scintillation cocktail was added and the radioactivity was measured with a microplate scintillation counter. Radioactivity in the presence of 10 μM spiperone was assumed as nonspecific binding.
as §1

T1 sequence (P61169 whole entry): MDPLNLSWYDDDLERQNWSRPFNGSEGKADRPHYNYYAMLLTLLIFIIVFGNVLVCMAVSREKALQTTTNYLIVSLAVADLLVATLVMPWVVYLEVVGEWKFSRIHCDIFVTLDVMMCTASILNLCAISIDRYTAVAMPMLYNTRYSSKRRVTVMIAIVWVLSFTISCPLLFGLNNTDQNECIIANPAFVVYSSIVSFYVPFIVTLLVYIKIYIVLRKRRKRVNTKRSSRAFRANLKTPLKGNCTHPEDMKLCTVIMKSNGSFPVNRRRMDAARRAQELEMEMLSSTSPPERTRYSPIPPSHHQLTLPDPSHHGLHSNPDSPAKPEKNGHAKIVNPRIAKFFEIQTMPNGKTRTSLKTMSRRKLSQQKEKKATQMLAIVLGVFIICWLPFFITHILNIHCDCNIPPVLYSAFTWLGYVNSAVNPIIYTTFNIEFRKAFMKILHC

SMILES: CNC(=O)c1cc(OCCCN2CCN(c3cccc4sccc34)CC2)n(C)n1.Cl [Example 3, N-methyl-5-[3-(4-benzo[b]thiophen-4-yl-piperazin-1-yl)propoxy]-1-methyl-1H-pyrazole-3-carboxamide hydrochloride]
- melting point: 228 to 232.5 °C (dec.)
- Ki (Dopamine D2 receptor): 1.5 nM
- Ki [1]: 6 nM

SMILES: CNC(=O)c1csc(OCCCN2CCN(c3cccc4sccc34)CC2)n1.Cl [Example 6, N-methyl-2-[3-(4-benzo[b]thiophen-4-yl-piperazin-1-yl)propoxy]thiazole-4-carboxamide hydrochloride]
- melting point: 199.5 to 202.5 °C
- Ki (Dopamine D2 receptor): 0.7 nM
- Ki [1]: 3.3 nM

SMILES: COc1cc(N(C)C(C)=O)cc(C)c1OCCCN1CCN(c2cccc3sccc23)CC1.Cl [Example 14, N-{4-[3-(4-benzo[b]thiophen-4-yl-piperazin-1-yl)propoxy]-3-methoxy-5-methylphenyl}-N-methylacetamide hydrochloride]
- melting point: 230 to 234 °C (dec.)
- Ki (Dopamine D2 receptor): 0.3 nM
- Ki [1]: 2.4 nM

SMILES: CNC(=O)c1ccc(OCCCN2CCN(c3cccc4sccc34)CC2)nc1 [Example 27]
- melting point: 132.5 to 133.5 °C
- Ki (Dopamine D2 receptor): 1.5 nM
- Ki [1]: 1 nM

SMILES: NC(=O)c1cc(OCCCN2CCN(c3cccc4sccc34)CC2)ccn1 [Example 48]
- melting point: 150 to 150.5 °C
- Ki (Dopamine D2 receptor): 2.3 nM
- Ki [1]: 3.8 nM

SMILES: CNC(=O)c1cnc(OCCCN2CCN(c3cccc4sccc34)CC2)cn1 [Example 61]
- melting point: 116.5 to 118 °C
- Ki (Dopamine D2 receptor): 5 nM
- Ki [1]: 4.9 nM

SMILES: O=c1[nH]cnc2ccc(OCCCN3CCN(c4cccc5sccc45)CC3)cc12 [Example 94]
- melting point: 213.1 to 218.5 °C
- Ki (Dopamine D2 receptor): 2.4 nM
- Ki [1]: 2 nM

SMILES: NC(=O)c1ccc(OCCCCN2CCN(c3cccc4sccc34)CC2)cc1 [Example 169]
- melting point: 150 to 151.5 °C
- Ki (Dopamine D2 receptor): 0.9 nM
- Ki [1]: 2.6 nM

SMILES: CNC(=O)c1ccc(OCCCCN2CCN(c3cccc4sccc34)CC2)cc1 [Example 170]
- melting point: 154 to 156 °C
- Ki (Dopamine D2 receptor): 1 nM
- Ki [1]: 3.3 nM

SMILES: CNC(=O)c1ccc(OCCCN2CCN(c3cccc4sccc34)CC2)c(C)c1 [Example 186]
- melting point: 156.5 to 158 °C
- Ki (Dopamine D2 receptor): 1.3 nM
- Ki [1]: 2 nM

SMILES: COc1cc(C(N)=O)ccc1OCCCN1CCN(c2cccc3sccc23)CC1 [Example 190]
- melting point: 162 to 163.5 °C
- Ki (Dopamine D2 receptor): 1.2 nM
- Ki [1]: 0.6 nM

SMILES: CNC(=O)c1ccc(OCCCN2CCN(c3cccc4sccc34)CC2)c(N)c1 [Example 232]
- melting point: 124 to 125.5 °C
- Ki (Dopamine D2 receptor): 1.1 nM
- Ki [1]: 2.7 nM

SMILES: CNC(=O)c1cc(C)c(OCCCN2CCN(c3cccc4sccc34)CC2)c(C)c1 [Example 241]
- melting point: 152.5 to 154.5 °C
- Ki (Dopamine D2 receptor): 0.4 nM
- Ki [1]: 0.7 nM

SMILES: COc1cc(C(N)=O)cc(OC)c1OCCCN1CCN(c2cccc3sccc23)CC1 [Example 243]
- melting point: 147.5 to 148 °C
- Ki (Dopamine D2 receptor): 0.2 nM
- Ki [1]: 0.5 nM
